Reference: patent US20240199576A1, “NOVEL CYCLOPENTA[C]PYRROL NEGATIVE ALLOSTERIC MODULATORS OF NR2B” (Novartis AG, priority 2021, published 2024)

Tests used:
hERG = hERG (Homo sapiens (Human), UniProt Q12809); test: hERG Qpatch assay; type: cell-based; conditions: hERG expressing CHO-K1 cells, automated patch clamp, tail current
Procedure: This assay was performed by the method described in Skepper et al., J. Med. Chem. 2020, 63, 7773-7816:
hERG expressing cell lines were produced in-house at Novartis using CHO-K1 T-Rex inducible plasmid system (Invitrogen) as described previously (Cao et al., Assay Drug Dev. Technol. 2010, 8, 766-780). Cell lines were maintained in Ham's F12 nutrient mixture containing 10% FBS, blasticidin ([…]; InvivoGen), hygromycin B ([…]; InvivoGen), Zeocin ([…], Invitrogen), and neomycin ([…], Invitrogen) using SelecT automated cell culture system (TAP Biosystems, Cambridge, U.K.). hERG and hCav1.2 channels expression was induced with tetracycline (0.25-1 μg/mL, Invitrogen) at least 24 h prior to the experiment.
hERG currents were recorded using the Qpatch automated patch clamp systems (Sophion Bioscience Inc., North Brunswick, NJ) in the whole (single) cell configuration. hERG expressing CHO-K1 cells were harvested with Detachin (Genlantis) and stored in the modified serum-free SFM-2 media (Life Technologies) at room temperature. The extracellular solution contained (in mM) NaCl (145), KCl (4), MgCl2 (1), CaCl2 (2), and HEPES (10), pH 7.4, with NaOH. The intracellular solution contained KCl (135), MgCl2 (1.75), CaCl2 (5.4), EGTA (10), K2-ATP (4), and HEPES (10), pH 7.2, with KOH. After whole cell configuration was achieved, the cell was held at −90 mV, and a 0.1 s pulse to −50 mV was delivered to measure the leaking current, which was subtracted from the tail current online. Then the cell was depolarized to +20 mV for 4 s (prepulse), followed by a 4 s test pulse to −50 mV to reveal the hERG tail current. To monitor changes in the current amplitude, this voltage protocol was repeatedly applied every 20 s. Test compounds were first diluted in DMSO for six dose-response experiments and then dissolved in the extracellular solution using Freedom EVO liquid handling robotic system (Tecan, Männedorf, Switzerland). The final DMSO concentration in samples was 0.3% v/v. Amitriptyline (Sigma) was tested as a positive control. Data were analyzed using in-house developed MatLab-based program (MathWorks, Natick, MA).

NR2B = NR2B (Rattus norvegicus (Rat), UniProt Q00960); test: NR2B rat cortical neuron calcium influx assay; type: cell-based; conditions: rat cortical neurons, glutamate and glycine stimulated calcium influx, 2 hours compound incubation
Chain of NR2B (Q00960 27-1482, other chains not shown): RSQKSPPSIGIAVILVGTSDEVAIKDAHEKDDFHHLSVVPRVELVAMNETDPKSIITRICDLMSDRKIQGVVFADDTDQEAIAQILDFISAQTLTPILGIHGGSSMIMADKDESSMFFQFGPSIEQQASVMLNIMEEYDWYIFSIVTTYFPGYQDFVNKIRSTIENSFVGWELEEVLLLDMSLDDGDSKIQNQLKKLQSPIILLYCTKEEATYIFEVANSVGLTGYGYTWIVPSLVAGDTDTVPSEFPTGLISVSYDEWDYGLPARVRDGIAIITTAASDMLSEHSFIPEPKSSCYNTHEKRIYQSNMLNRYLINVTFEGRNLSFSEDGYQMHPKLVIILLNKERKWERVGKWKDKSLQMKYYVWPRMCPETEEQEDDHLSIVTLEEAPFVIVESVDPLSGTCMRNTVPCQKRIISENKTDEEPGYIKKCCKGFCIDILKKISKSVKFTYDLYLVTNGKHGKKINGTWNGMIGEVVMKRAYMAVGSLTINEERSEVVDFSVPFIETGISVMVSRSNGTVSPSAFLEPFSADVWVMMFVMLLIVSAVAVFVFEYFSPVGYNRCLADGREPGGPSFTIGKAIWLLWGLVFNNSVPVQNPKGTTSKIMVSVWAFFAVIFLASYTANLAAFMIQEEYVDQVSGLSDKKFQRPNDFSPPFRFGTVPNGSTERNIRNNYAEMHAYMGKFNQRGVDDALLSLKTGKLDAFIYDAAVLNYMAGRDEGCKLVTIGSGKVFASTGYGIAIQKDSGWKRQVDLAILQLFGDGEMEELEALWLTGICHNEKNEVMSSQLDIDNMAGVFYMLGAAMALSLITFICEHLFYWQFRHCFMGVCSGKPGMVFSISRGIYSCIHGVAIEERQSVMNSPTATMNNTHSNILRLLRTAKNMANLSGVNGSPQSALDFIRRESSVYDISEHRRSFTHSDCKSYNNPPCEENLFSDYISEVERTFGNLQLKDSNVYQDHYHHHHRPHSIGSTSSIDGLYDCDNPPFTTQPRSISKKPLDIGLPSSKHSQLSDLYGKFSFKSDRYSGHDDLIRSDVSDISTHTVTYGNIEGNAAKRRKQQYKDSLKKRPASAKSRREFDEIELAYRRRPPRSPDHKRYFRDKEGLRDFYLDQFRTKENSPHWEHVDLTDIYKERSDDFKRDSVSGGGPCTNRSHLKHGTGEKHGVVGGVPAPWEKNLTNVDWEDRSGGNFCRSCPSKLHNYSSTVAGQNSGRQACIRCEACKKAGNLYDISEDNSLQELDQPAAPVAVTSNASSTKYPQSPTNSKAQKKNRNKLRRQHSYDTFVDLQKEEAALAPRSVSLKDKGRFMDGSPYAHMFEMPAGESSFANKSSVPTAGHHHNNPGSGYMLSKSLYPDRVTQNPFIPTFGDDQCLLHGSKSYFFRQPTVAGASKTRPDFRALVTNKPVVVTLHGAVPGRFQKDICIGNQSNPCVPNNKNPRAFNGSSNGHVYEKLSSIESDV
Description: Example 1: NR2B Rat Cortical Neuron Calcium Influx Assay Protocol
Embryonic day 18 timed pregnant Sprague Dawley rats were euthanized according to Institutional Animal Care and Use Committee (IACUC) protocol. After cutting medially through the skin and exposing the uterus and embryos, fetuses were removed and placed in cold Hibernate medium. Each embryo's brain was extracted and cerebral cortices were isolated by removing the midbrain and meninges. The dissected cortices were then dissociated into the neurons using papain dissociation system (Worthington Biochemical Corporation) according the manufacturer's protocol.
Dissociated neurons were counted and plated into 384-well poly-D-lysine coated plates (Corning® BioCoat™) at a density of 20,000 cells/well in 30 μL of Neurobasal/B27 complete medium. Neurons were cultured at 37° C. for 2 days. On the assay day, medium was removed and cells were incubated with 20 μL/well of calcium dye (Calcium 6 Assay Kit, Molecular Devices) suspended in HBSS with 1.8 mM Ca^2+ (Ca-HBSS) according to the manufacturer's instruction.
Compounds of interest from 10 mM stock were serially diluted into 3× of desired concentrations in 1.8 mM Ca-HBSS, and 10 μL were added to the wells. Compound and the neurons were incubated at 37° C. for 2 hours in the dark.
On FDSS7000EX (Hamamatsu Photonics), a fluorescence measuring instrument, 10 μL of 4× ligand solution containing glutamate and glycine made in 1.8 mM Ca^2+-HBSS were added to each well. The fluorescent signals were collected before and after the addition of ligands for a total of 2 minutes. The data were converted to a ratio of the peak fluorescence to the fluorescence at the beginning of the measurement.
Each data point was measured in duplicates. Dose response curves were used to identify IC50 and maximal inhibition values. IC50 represents the concentration in μM of compound at which there is a half-maximal compound effect. Maximal inhibition of a compound is expressed as a percent of the highest inhibition of activity over a no compound control.

Chain of hERG (Q12809 whole entry): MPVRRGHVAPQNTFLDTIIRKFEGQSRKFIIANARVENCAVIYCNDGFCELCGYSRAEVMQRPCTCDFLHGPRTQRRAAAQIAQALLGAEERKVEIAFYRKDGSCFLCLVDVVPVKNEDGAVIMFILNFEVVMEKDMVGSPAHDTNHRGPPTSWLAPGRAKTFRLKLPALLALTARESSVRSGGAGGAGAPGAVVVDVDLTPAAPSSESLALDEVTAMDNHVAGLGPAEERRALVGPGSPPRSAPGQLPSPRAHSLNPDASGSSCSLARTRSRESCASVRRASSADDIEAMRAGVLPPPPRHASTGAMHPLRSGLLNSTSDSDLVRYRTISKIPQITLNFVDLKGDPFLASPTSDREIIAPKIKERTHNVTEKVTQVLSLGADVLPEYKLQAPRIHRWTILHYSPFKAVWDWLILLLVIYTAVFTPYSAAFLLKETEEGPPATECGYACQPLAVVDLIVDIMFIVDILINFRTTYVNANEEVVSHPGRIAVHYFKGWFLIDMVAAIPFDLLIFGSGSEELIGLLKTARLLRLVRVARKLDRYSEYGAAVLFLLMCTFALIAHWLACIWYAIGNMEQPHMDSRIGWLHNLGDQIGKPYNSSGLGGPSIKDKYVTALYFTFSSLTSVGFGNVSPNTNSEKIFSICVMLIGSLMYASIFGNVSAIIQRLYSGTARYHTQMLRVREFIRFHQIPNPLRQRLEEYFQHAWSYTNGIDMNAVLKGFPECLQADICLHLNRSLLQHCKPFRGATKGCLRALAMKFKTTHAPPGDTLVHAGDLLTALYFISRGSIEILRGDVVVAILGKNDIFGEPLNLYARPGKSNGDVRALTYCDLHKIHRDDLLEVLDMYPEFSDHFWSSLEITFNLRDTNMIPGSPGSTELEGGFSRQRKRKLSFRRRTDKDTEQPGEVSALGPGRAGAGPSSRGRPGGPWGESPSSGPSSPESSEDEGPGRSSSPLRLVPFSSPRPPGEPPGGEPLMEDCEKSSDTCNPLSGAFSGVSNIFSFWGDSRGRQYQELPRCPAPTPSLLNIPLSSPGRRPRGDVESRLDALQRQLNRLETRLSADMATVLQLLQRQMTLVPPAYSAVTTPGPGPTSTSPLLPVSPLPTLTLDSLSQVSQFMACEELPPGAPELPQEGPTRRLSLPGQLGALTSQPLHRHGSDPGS

| IC50 (NR2B) | Compound | IC50 (hERG) |
| --- | --- | --- |
|  | Oc1c(F)cc(C(O)CN2C[C@H]3C[C@H](Oc4ccccc4)C[C@H]3C2)cc1F (mixture of isomers) [Mixture of two isomers at benzylic position, reference compound] | 2.8 µM |
| 0.028 µM | Oc1c(F)cc(C(O)CN2C[C@H]3C[C@H](Oc4ccccc4)[C@H](O)[C@@]3(O)C2)cc1F (some centres unmarked) [Example 5B] |  |
| 3.7 µM | Oc1c(F)cc(C(O)CN2C[C@@H]3C[C@@H](Oc4ccccc4)[C@@H](O)[C@]3(O)C2)cc1F (single isomer, unassigned) [Example 5D] |  |
|  | Oc1ccc(C(O)CN2C[C@H]3C[C@H](Oc4ccccc4)C[C@H]3C2)nc1 (single isomer, unassigned) [Table 3 from WO 2016/049165 (isomer 1), reference compound] | 2 µM |
| 0.035 µM | Oc1ccc(C(O)CN2C[C@H]3C[C@H](Oc4ccccc4)[C@H](O)[C@@]3(O)C2)nc1Cl (single isomer, unassigned) [Example 4D] |  |
| > 10 µM | Oc1ccc(C(O)CN2C[C@@H]3C[C@@H](Oc4ccccc4)[C@@H](O)[C@]3(O)C2)nc1F (some centres unmarked) [Example 3A] |  |
| 0.011 µM | Oc1ccc(C(O)CN2C[C@H]3C[C@H](Oc4ccccc4F)[C@H](O)[C@@]3(O)C2)nc1 (single isomer, unassigned) [Example 2A] |  |
| 0.006 µM | Oc1c(F)cc([C@H](O)CN2C[C@H]3C[C@H](Oc4ccccc4)C[C@@]3(O)C2)cc1F [Example 10D, (3aS,5S,6aR)-2-((S)-2-(3,5-difluoro-4-hydroxyphenyl)-2-hydroxyethyl)-5-phenoxyhexahydrocyclopenta[c]pyrrol-3a(1H)-ol] | 25 µM |
| 0.0022 µM | Oc1ccc(C(O)CN2C[C@H]3C[C@H](Oc4ccccc4F)[C@H](O)[C@@]3(O)C2)nc1 (single isomer, unassigned) [Example 2B] |  |
| 0.00074 µM | Oc1ccc(C(O)CN2C[C@H]3C[C@H](Oc4ccccc4F)C[C@@]3(O)C2)nc1 (single isomer, unassigned) [Example 1B] | 14 µM |
| 0.031 µM | Oc1ccc(C(O)CN2C[C@H]3C[C@H](Oc4ccccc4)[C@H](O)[C@@]3(O)C2)nc1Cl (single isomer, unassigned) [Example 4C] |  |
| 0.77 µM | Oc1ccc(C(O)CN2C[C@@H]3C[C@@H](Oc4ccccc4F)[C@@H](O)[C@]3(O)C2)nc1 (single isomer, unassigned) [Example 2C] |  |
| 0.0032 µM | Oc1ccc(C(O)CN2C[C@H]3C[C@H](Oc4ccccc4)C[C@@]3(O)C2)nc1 (single isomer, unassigned) [Example 7D] | 19 µM |
| 0.014 µM | Oc1c(F)cc([C@@H](O)CN2C[C@H]3C[C@H](Oc4ccccc4)C[C@@]3(O)C2)cc1F [Example 10C] | 22 µM |
| > 10 µM | Oc1ccc(C(O)CN2C[C@@H]3C[C@@H](Oc4ccccc4)[C@@H](O)[C@]3(O)C2)nc1Cl (some centres unmarked) [Example 4A] |  |
| 0.0011 µM | Oc1ccc(C(O)CN2C[C@H]3C[C@H](Oc4ccccc4F)C[C@@]3(O)C2)nc1 (single isomer, unassigned) [Example 1C] | 22 µM |
| 0.95 µM | Oc1ccc(C(O)CN2C[C@@H]3C[C@@H](Oc4ccccc4F)[C@@H](O)[C@]3(O)C2)nc1 (single isomer, unassigned) [Example 2D] |  |
| 0.018 µM | Oc1ccc(CCN2C[C@H]3C[C@H](Oc4ccc(F)cc4F)C[C@@]3(O)C2)nc1 [Example 19] |  |
| 0.024 µM | Oc1ccc(C(O)CN2C[C@H]3C[C@H](Oc4ccccc4)[C@H](O)[C@@]3(O)C2)nc1F (some centres unmarked) [Example 3D] |  |
| 0.9 µM | Oc1c(F)cc(C(O)CN2C[C@@H]3C[C@@H](Oc4ccccc4)[C@@H](O)[C@]3(O)C2)cc1F (single isomer, unassigned) [Example 5C] |  |
| 0.0024 µM | Oc1ccc(C(O)CN2C[C@H]3C[C@H](Oc4ccccc4)C[C@@]3(O)C2)nc1 (single isomer, unassigned) [Example 7C] | 28 µM |
| 0.82 µM | Oc1ccc(CCN2C[C@H]3C[C@H](Oc4cccnc4F)C[C@@]3(O)C2)nc1 [Example 20] |  |
|  | Oc1ccc(C(O)CN2C[C@H]3C[C@H](Oc4ccccc4)C[C@H]3C2)nc1 (single isomer, unassigned) [Table 3 of WO 2016/049165 (isomer 2), reference compound] | 2.7 µM |
